Laboratory results: US20260234165A1, “MACROCYCLIC COMPOUNDS, PREPARATION METHOD THEREFOR, AND USE THEREOF” (GENFLEET THERAPEUTICS (SHANGHAI) INC., priority 2004, published 2026)
Where two headings read alike, the source gives them in different places.

Columns and labels:
Assay type in all cases: cell-based, human
[1] = system: p-ERK in AsPC-1 cells (KRAS G12D mutation); assay: Cell p-ERK assay (HTRF) in AsPC-1 cells; settings: AsPC-1 cells, 3 h compound incubation, HTRF p-ERK T202/Y204, read-out: AsPC-1 p-ERK IC50
Summary of the method: (§1)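 Seed 10000 AsPC-1 or 20000 NCI-H441 cells/well, overnight 37 °C/5% CO2. Cpd 3.16-fold series, 0.1% DMSO final, 3 h. Lyse 30 min, HTRF p-ERK (T202/Y204) Ab 4 h. IC50: 4-parameter fit of IR% normalised to DMSO and blank.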

[2] = system: p-ERK in NCI-H441 cells (KRAS G12V mutation); assay: Cell p-ERK assay (HTRF) in NCI-H441 cells; settings: NCI-H441 cells, 3 h compound incubation, HTRF p-ERK T202/Y204, read-out: H441 p-ERK IC50
Summary of the method: as §1

[3] = system: AsPC-1 cells (KRAS G12D mutation); assay: 3D cell proliferation assay (CellTiter Glo-3D), AsPC-1; settings: medium with 2% FBS, read-out: AsPC-1 AP IC50
Summary of the method: (§2)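 Luminescence read-out (CellTiter-Glo 3D) after 5-day compound exposure at 37 °C, 5% CO2. Cells: NCI-H441 and AsPC-1, 800/well, RPMI-1640 + 2% FBS, 0.1% DMSO final. IC50 by four-parameter fit of % inhibition against log concentration.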

NCI-H441 cells = assay: 3D cell proliferation assay (CellTiter Glo-3D), NCI-H441; settings: medium with 2% FBS, read-out: H441 AP IC50
Summary of the method: as §2

[4] = Homo sapiens, ASPC1, 3D cell proliferation (CellTiter Glo-3D)
[5] = Homo sapiens, NCI-H441, 3D cell proliferation (CellTiter Glo-3D)
[6] = 3D cell proliferation (CellTiter Glo-3D)

Row | Structure (SMILES) | IC50 ([1]; Homo sapiens, ASPC1, 3 h) [pM] | IC50 ([2]; Homo sapiens, NCI-H441, 3 h) [pM] | IC50 [3, 4] [pM] | IC50 (NCI-H441 cells; [5]) [pM] | IC50 [1] [pM] | IC50 [2] [pM] | IC50 [3, 6] [pM] | IC50 (NCI-H441 cells; [6]) [pM]
1 | CO[C@@H](C)c1ncc(OCCN2CCS(=O)(=O)CC2)cc1-c1c2c3cc(ccc3n1CC(F)(F)F)-c1csc(n1)C[C@H](NC(=O)[C@H]1C[C@@H]1C)C(=O)N1CCC[C@H](N1)C(=O)OCC(C)(C)C2 (atropisomer, axis not shown; (Ra)) [Compound Z677, (1S,2S)—N-((6^3S,4S,Z)—(Ra)-1^2-(5-(2-(1,1-dioxidothiomorpholino)ethoxy)-2-((S)-1-methoxyethyl)pyridin-3-yl)-10,10-dimethyl-5,7-dioxo-1^1-(2,2,2-trifluoroethyl)-6^1,6^2,6^3,6^4,6^5,6^6-hexahydro-1^1H-8-oxa-2(4,2)-thiazola-1(5,3)-indola-6(1,3)-pyridazinacycloundecaphane-4-yl)-2-methylcyclopropane-1-carboxamide] | 350 | 290 | 530 | 200 | – | – | – | –
2 | CO[C@@H](C)c1ncc(OCCN2CCS(=O)(=O)CC2)cc1-c1c2c3cc(ccc3n1C(C)C)-c1csc(n1)C[C@H](NC(=O)[C@H]1[C@H](C)[C@@H]1C)C(=O)N1CCC[C@H](N1)C(=O)OCC(C)(C)C2 (atropisomer, axis not shown; (Ra)) [Compound Z678, (1r,2R,3S)—N-((6^3S,4S,Z)—(Ra)-1^2-(5-(2-(1,1-dioxidothiomorpholino)ethoxy)-2-((S)-1-methoxyethyl)pyridin-3-yl)-1^1-isopropyl-10,10-dimethyl-5,7-dioxo-6^1,6^2,6^3,6^4,6^5,6^6-hexahydro-1^1H-8-oxa-2(4,2)-thiazola-1(5,3)-indola-6(1,3)-pyridazinacycloundecaphane-4-yl)-2,3-dimethylcyclopropane-1-carboxamide] | – | – | – | – | 60 | 170 | 170 | 60
3 | CCn1c(-c2cc(C#CCN3CCN(C)CC3)cnc2[C@H](C)OC)c2c3cc(ccc31)-c1csc(n1)C[C@H](NC(=O)[C@H]1[C@H](C)[C@@H]1C)C(=O)N1CCC[C@H](N1)C(=O)OCC(C)(C)C2 (atropisomer, axis not shown; (Ra)) [Compound Z703] | 360 | 170 | 680 | 300 | – | – | – | –
4 | CCn1c(-c2cc(N3CCN(C)CC3)cnc2[C@H](C)OC)c2c3cc(ccc31)-c1csc(n1)C[C@H](Nc1nnc3cc(OC)ccn13)C(=O)N1CCC[C@H](N1)C(=O)OCC(C)(C)C2 (atropisomer, axis not shown; (Ra)) [Compound Z777, N-((6^3S,4S,Z)-1^1-ethyl-(Ra)-1^2(2-((S)-1-methoxyethyl)-5-(4-methylpiperazin-1-yl)pyridin-3-yl)-10,10-dimethyl-5,7-dioxo-6^1,6^2,6^3,6^4,6^5,6^6-hexahydro-1^1H-8-oxa-2(4,2)-thiazola-1(5,3)-indola-6(1,3)-pyridazinacycloundecaphane-4-yl)-4-(7-methoxy-[1,2,4]triazolo[4,3-a]pyridin-3-yl)amine] | – | – | – | – | 61900 | 22200 | 87900 | 18200
5 | CCn1c(-c2cc(OC[C@@H]3CCCN3Cc3ccn(C)n3)cnc2[C@H](C)OC)c2c3cc(ccc31)-c1csc(n1)C[C@H](NC(=O)[C@H]1[C@H](C)[C@@H]1C)C(=O)N1CCC[C@H](N1)C(=O)OCC(C)(C)C2 (atropisomer, axis not shown; (Ra)) [Compound Z784-1, (1r,2R,3S)—N-((6^3S,4S,Z)—(Ra)-1^2-5-(((S)-1-((1-methyl-1H-pyrazol-3-yl)methyl)pyrrolidin-2-yl)methoxy)-(2-((S)-1-methoxyethyl)-pyridin-3-yl)-10,10-dimethyl-5,7-dioxo-6^1,6^2,6^3,6^4,6^5,6^6-hexahydro-1^1H-8-oxa-2(4,2)-thiazola-1(5,3)-indola-6(1.3)-pyridazinacycloundecaphane-4-yl)-2,3-dimethylcyclopropane-1-carboxamide] | 890 | 900 | 1370 | 930 | – | – | – | –
6 | CCn1c(-c2cc(OC[C@H]3CCCN3Cc3ccn(C)n3)cnc2[C@H](C)OC)c2c3cc(ccc31)-c1csc(n1)C[C@H](NC(=O)[C@H]1[C@H](C)[C@@H]1C)C(=O)N1CCC[C@H](N1)C(=O)OCC(C)(C)C2 (atropisomer, axis not shown; (Ra)) [Compound Z784-2, (1r,2R,3S)—N-((6^3S,4S,Z)—(Ra)-1^2-5-(((R)-1-((1-methyl-1H-pyrazol-3-yl)methyl)pyrrolidin-2-yl)methoxy)-(2-((S)-1-methoxyethyl)-pyridin-3-yl)-10,10-dimethyl-5,7-dioxo-6^1,6^2,6^3,6^4,6^5,6^6-hexahydro-1^1H-8-oxa-2(4,2)-thiazola-1(5,3)-indola-6(1.3)-pyridazinacycloundecaphane-4-yl)-2,3-dimethylcyclopropane-1-carboxamide] | 660 | 800 | 830 | 530 | – | – | – | –

The remaining lines, values ahead:

Row | IC50 ([1]; Homo sapiens, ASPC1, 3 h) [pM] | IC50 ([2]; Homo sapiens, NCI-H441, 3 h) [pM] | IC50 [3, 4] [pM] | IC50 (NCI-H441 cells; [5]) [pM] | IC50 [1] [pM] | IC50 [2] [pM] | IC50 [3, 6] [pM] | IC50 (NCI-H441 cells; [6]) [pM] | Structure (SMILES)
7 | 420 | 550 | 1100 | 280 | – | – | – | – | CCn1c(-c2cc(OCCN3CCN(C)S(=O)(=O)CC3)cnc2[C@H](C)OC)c2c3cc(ccc31)-c1csc(n1)C[C@H](NC(=O)[C@H]1[C@H](C)[C@@H]1C)C(=O)N1CCC[C@H](N1)C(=O)OCC(C)(C)C2 (atropisomer, axis not shown; (Ra)) [Compound Z796]
8 | – | – | 3220 | 1830 | 1350 | 1650 | – | – | CCn1c(-c2cc(C#CC(=O)N3CCCOCC3)cnc2[C@H](C)OC)c2c3cc(ccc31)-c1csc(n1)C[C@H](NC(=O)[C@H]1[C@H](C)[C@@H]1C)C(=O)N1CCC[C@H](N1)C(=O)OCC(C)(C)C2 (atropisomer, axis not shown; (Ra)) [Compound Z810, (1r,2R,3S)—N-((6^3S,4S,Z)-1^1-ethyl-(Ra)-1-(5-(3-(1,4-oxazepan-4-yl)-3-oxoprop-1-yn-1-yl)-2-((S)-1-methoxyethyl)pyridin-3-yl)-10,10-methyl-5,7-dioxo-6^1,6^2,6^3,6^4,6^5,6^6hexahydro-1^1H-8-oxa-2(4,2)-thiazola-1(5,3)-indola-6(1,3)-pyridazinacycloundecaphane-4-yl)-2,3-dimethylcyclopropane-1-carboxamide]
9 | 1690 | 1060 | 3520 | 1640 | – | – | – | – | CCn1c(-c2cc(C#CCN3CCCOCC3)cnc2[C@H](C)OC)c2c3cc(ccc31)-c1csc(n1)C[C@H](NC(=O)C(C)(C)CC)C(=O)N1CCC[C@H](N1)C(=O)OCC(C)(C)C2 (atropisomer, axis not shown; (Ra)) [Compound Z812, N-((6^3S,4S,Z)—(Ra)-1^2-(5-(3-(1,4-oxazepan-4-yl)prop-1-yn-1-yl)-2-((S)-1-methoxyethyl)pyridin-3-yl)-1^1-ethyl-10,10-dimethyl-5,7-dioxo-6^1,6^2,6^3,6^4,6^5,6^6-hexahydro-1^1H-8-oxa-2(4.2)-thiazola-1(5,3)-indola-6(1,3)-pyridazinacycloundecaphane-4-yl)-2.2-dimethylbutanamide]
10 | – | – | – | – | 150 | 140 | 140 | 180 | CCn1c(-c2cc(C#CCN3CCOC[C@@H]3C)cnc2[C@H](C)OC)c2c3cc(ccc31)-c1csc(n1)C[C@H](NC(=O)[C@H]1[C@H](C)[C@@H]1C)C(=O)N1CCCC(N1)C(=O)OCC(C)(C)C2 (atropisomer, axis not shown; (Ra)) [Compound Z814]
11 | – | – | – | – | 500 | 830 | 1050 | 640 | CCn1c(-c2cc(C#CC3(N4CCC4)CC3)cnc2[C@H](C)OC)c2c3cc(ccc31)-c1csc(n1)C[C@H](NC(=O)[C@H]1[C@H](C)[C@@H]1C)C(=O)N1CCC[C@H](N1)C(=O)OCC(C)(C)C2 (atropisomer, axis not shown; (Ra)) [Compound Z836-1, (1r,2R,3S)—N-((4S,Z)—(Ra)-1^2-(5-((1-(azetidin-1-yl)cyclopropyl)ethynyl)-2-((S)-1-methoxyethyl)pyridin-3-yl)-1^1-ethyl-10,10-dimethyl-5,7-dioxo-6^1,6^2,6^3,6^4,6^5,6^6-hexahydro-1^1H-8-oxa-2(4,2)-thiazola-1(5,3)-indola-6(1,3)-pyridazinacycloundecaphane-4-yl)-2,3-dimethylcyclopropane-1-carboxamide]
12 | 180 | 250 | 80 | 130 | – | – | – | – | CCn1c(-c2cc(C#CCN3CCS(=N)(=O)CC3)cnc2[C@H](C)OC)c2c3cc(ccc31)-c1csc(n1)C[C@H](NC(=O)[C@H]1[C@H](C)[C@@H]1C)C(=O)N1CCC[C@H](N1)C(=O)OCC(C)(C)C2 (atropisomer, axis not shown; (Ra)) [Compound Z850, (1r,2R,3S)—N-((6^3S,4S,Z)-1^1-ethyl-(Ra)-1^2-(5-(3-(1-imino-1-oxo-11^6-thiomorpholino)prop-1-yn-1-yl)-2-((S)-1-methoxyethyl)pyridin-3-yl)-10,10-dimethyl-5,7-dioxo-6^1,6^2,6^3,6^4,6^5,6^6-hexahydro-1^1-8-oxa-2(4,2)-thiazola-1(5,3)-indola-0(1,3)-pyridazinacycloundecaphane-4-yl)-2.3-dimethylcyclopropane-1-carboxamide]
